The results in this text go back to patent US9550796B2, “Pyrrolopyrrolone derivatives and their use as BET inhibitors” (NOVARTIS AG, priority 2013, dated 2017).

Where only a bound is given, the exact number is not on record here.

The term IC50 denotes the concentration needed to halve the response being measured. Read a low IC50 as greater potency. One may read the GI50 as the concentration giving 50% growth inhibition. Low readings indicate more potent growth inhibition, high ones less potent growth inhibition.

The target of one assay is BRD2 (Homo sapiens (Human), UniProt P25440). As to the kind of experiment: TR-FRET in-vitro binding assay for BRD2. The conditions noted are these: 45 nM His-Brd2(60-472), acetyl-histone H4 (AcK 5, 8, 12, 16) peptide. The protocol: TR-FRET In-Vitro Binding Assays for BRD2, BRD3, and BRD4: All assays were performed in 384-well microtiter plates. […] Liquid handling and incubation steps were done on an Innovadyne Nanodrop Express equipped with a robotic arm (Thermo CatX, Perkin Elmer/Caliper Twister II) and an incubator (Liconic STX40, Thermo Cytomat 2C450). The assay plates were prepared by addition of 50 nl per well of compound solution in 90% DMSO HummingBird nanodispenser (Zinsser Analytic). […] Reactions were incubated at 30° C. for 35 minutes. […] After 35 minutes incubation at 30° C., plates were measured in a Perkin Elmer EnVision multilabel reader. […] The stock solutions were stored at […] if not used immediately. For the test procedure the vials were defrosted and identified by a scanner whereby a working sheet was generated that guided the subsequent working steps. Compound dilutions were made in 96 well plates. This format enabled the assay of maximally […] at 8 concentrations (single points) including 4 reference compounds, if desired (known BET inhibitors from the prior art, for this and other assays of the type disclosed herein). The dilution protocol included the production of “pre-dilution plates”, “master plates” and “assay plates”. Polypropylene 96-well plates were used as pre-dilution plates. […] All dilution steps were done on a HamiltonSTAR robot. […] Identical “assay plates” were then prepared by pipetting 50 nL each of compound dilutions of the “master plates” into 384-well “assay plates” by means of a HummingBird 384-channel dispenser. These plates were used directly for the assay which was performed in a total volume of 13.55 μL.
Sequence of BRD2 (P25440 60-472): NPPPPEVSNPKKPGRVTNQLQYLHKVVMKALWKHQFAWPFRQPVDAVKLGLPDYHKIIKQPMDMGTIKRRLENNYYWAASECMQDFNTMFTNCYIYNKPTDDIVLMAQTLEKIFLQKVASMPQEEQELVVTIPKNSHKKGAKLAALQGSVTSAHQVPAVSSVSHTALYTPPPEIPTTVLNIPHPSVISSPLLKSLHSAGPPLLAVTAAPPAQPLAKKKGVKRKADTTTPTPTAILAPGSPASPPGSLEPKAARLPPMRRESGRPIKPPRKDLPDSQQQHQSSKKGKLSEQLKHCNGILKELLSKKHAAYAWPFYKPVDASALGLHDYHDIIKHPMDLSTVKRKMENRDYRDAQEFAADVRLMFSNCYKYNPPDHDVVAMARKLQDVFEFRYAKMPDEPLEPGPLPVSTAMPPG

A further assay concerns the target BRD3 (Homo sapiens (Human), UniProt Q15059). Kind of assay: TR-FRET in-vitro binding assay for BRD3. The settings on record: 45 nM His-Brd3(20-477), acetyl-histone H4 (AcK 5, 8, 12, 16) peptide. In short, it runs like this: (§1)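 Incubation at 30° C lasted 35 min, followed by TR-FRET measurement; each compound was tested as 8 single-point concentrations.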
A general note: TR-FRET usually uses a lanthanide donor and a delayed reading to cut background.

A further assay deals with MV-4-11. As to the kind of experiment: Cell growth inhibition assay (CellTiter-Glo), MV-4-11. The conditions noted are these: MV-4-11 cells, 4 days; for GI50: Homo sapiens, MV4-11, 96 h, half-maximal growth inhibition; for MV-4-11 TGI: total growth inhibition. In kind it is cell-based, human. Put shortly:
(§2)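 Proliferation and viability are quantified by CellTiter-Glo after four days of incubation with serially diluted compound (maximum 10 μM). Four-parameter curve fitting gives IC50 and TGI.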

A further assay concerns THP-1. Kind of assay: Cell growth inhibition assay (CellTiter-Glo), THP-1. In kind it is cell-based, human. The settings on record: THP-1 cells, 4 days; for GI50: Homo sapiens, 96 h, half-maximal growth inhibition; for THP-1 TGI: total growth inhibition. In short, it runs like this: as §2
(In general: In ATP-based viability assays light output follows the ATP content of the culture.)

The next assay concerns K-562. As to the kind of experiment: Cell growth inhibition assay (CellTiter-Glo), K-562. In kind it is cell-based, human. The conditions noted are these: K-562 cells, 4 days; for GI50: Homo sapiens, K562, 96 h, half-maximal growth inhibition; for K-562 TGI: total growth inhibition. In short, it runs like this: as §2
The next assay concerns the target BRD4 (Homo sapiens (Human), UniProt O60885). As to the kind of experiment: TR-FRET in-vitro binding assay for BRD4. The settings on record: 45 nM His-Brd4(44-477), acetyl-histone H4 (AcK 5, 8, 12, 16) peptide. Put shortly: as §1
Another assay has as its target CREBBP (Homo sapiens (Human), UniProt Q92793). As to the kind of experiment: AlphaScreen in-vitro binding assay for CREBBP. The settings on record: 324 nM His-CREBBP (1081-1197), acetyl-histone H4 (AcK 5, 8, 12) peptide. Put shortly:
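IC50 values were derived by non-linear regression of percent inhibition across 8 compound concentrations. Protein was His-tagged CREBBP bromodomain (1081-1197), peptide acetyl-histone H4 (AcK 5, 8, 12), in HEPES pH 7.5 buffer. Read-out was AlphaScreen with Ni-chelate acceptor and streptavidin donor beads, 35 min at 30° C then 60 min at RT.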

Sequence of CREBBP (Q92793 1081-1197): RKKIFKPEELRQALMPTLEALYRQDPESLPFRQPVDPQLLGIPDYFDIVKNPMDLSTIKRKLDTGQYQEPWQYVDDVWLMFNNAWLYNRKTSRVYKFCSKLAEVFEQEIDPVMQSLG
Sequence of BRD3 (Q15059 20-477): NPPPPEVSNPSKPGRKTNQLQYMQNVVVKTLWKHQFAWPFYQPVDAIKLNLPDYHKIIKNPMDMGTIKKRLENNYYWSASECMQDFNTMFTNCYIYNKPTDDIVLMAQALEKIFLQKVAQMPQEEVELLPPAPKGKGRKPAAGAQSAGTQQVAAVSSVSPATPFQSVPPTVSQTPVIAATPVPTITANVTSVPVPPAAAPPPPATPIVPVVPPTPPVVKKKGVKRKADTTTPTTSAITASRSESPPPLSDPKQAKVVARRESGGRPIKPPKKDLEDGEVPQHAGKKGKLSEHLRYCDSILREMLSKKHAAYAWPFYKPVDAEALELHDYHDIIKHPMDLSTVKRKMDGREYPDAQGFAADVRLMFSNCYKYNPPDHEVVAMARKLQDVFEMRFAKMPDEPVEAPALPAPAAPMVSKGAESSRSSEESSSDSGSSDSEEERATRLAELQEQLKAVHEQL

In the case of `COc1cccc(C2c3c(ccn3C)C(=O)N2c2cc(Cl)c(=O)n(C)c2)c1` (centres unmarked) [Example 91, 5-(5-chloro-1-methyl-6-oxo-1,6-dihydropyridin-3-yl)-6-(3-methoxyphenyl)-1-methyl-5,6-dihydropyrrolo[3,4-b]pyrrol-4(1H)-one], the IC50 at BRD2 is 830 nM. This compound also yielded an IC50 at BRD3 of 667 nM. For the same compound, in the assay on MV-4-11, growth was halved (GI50) at 371 nM and the “MV-4-11 TGI” value was determined as 641.5 nM. Also, in the assay on THP-1, the GI50 worked out at 466 nM and the “THP-1 TGI” value was determined as 1002.5 nM. Moreover, in the assay on K-562, growth was halved (GI50) at 1720 nM and the “K-562 TGI” value is greater than 10000 nM.
As for `COc1ncc(-c2cc3c(n2C)C(c2ccc(Cl)cc2)N(c2cc(C)c(=O)n(C)c2)C3=O)c(OC)n1` (centres unmarked) [Example 53, 6-(4-chlorophenyl)-2-(2,4-dimethoxypyrimidin-5-yl)-5-(1,5-dimethyl-6-oxo-1,6-dihydropyridin-3-yl)-1-methyl-5,6-dihydropyrrolo[3,4-b]pyrrol-4(1H)-one], the results for the IC50 on BRD4, on BRD2 and on BRD3 were 40 nM, 41 nM and 39 nM, respectively.
Turning to `Cc1cc(N2C(=O)c3c(NC(=O)CN(C)C)cn(C)c3C2c2ccc(Cl)cc2)cn2c(C(F)F)nnc12` (centres unmarked) [Example 134, N-(6-(4-chlorophenyl)-5-(3-(difluoromethyl)-8-methyl-[1,2,4]triazolo[4,3-a]pyridin-6-yl)-1-methyl-4-oxo-1,4,5,6-tetrahydropyrrolo[3,4-b]pyrrol-3-yl)-2-(dimethylamino)acetamide], the IC50 on BRD4 is 22 nM; at BRD3 it was 29 nM; at CREBBP, greater than 37000 nM. In addition, the GI50 with MV-4-11 is 31.5 nM; in the assay on THP-1, 34.2 nM; with K-562 it was 181 nM. Further, the “MV-4-11 TGI” value with MV-4-11 was 65 nM. Further, the “THP-1 TGI” value in the assay with THP-1 amounted to 82.4 nM. Moreover, the “K-562 TGI” value in the assay on K-562 was greater than 10000 nM.
On to `Cc1cn(C2CCN(C)C2=O)c2c1C(=O)N(c1cc(C)c3nnc(C)n3c1)C2c1ccc(Cl)cc1` (centres unmarked) [Example 126, 6-(4-chlorophenyl)-5-(3,8-dimethyl-[1,2,4]triazolo[4,3-a]pyridin-6-yl)-3-methyl-1-(1-methyl-2-oxopyrrolidin-3-yl)-5,6-dihydropyrrolo[3,4-b]pyrrol-4(1H)-one], for which the results for the concentration for half-maximal inhibition (IC50) on BRD4, at BRD3 and on CREBBP were 43 nM, 48 nM and 12900 nM, respectively. Moreover, the concentration for 50% growth inhibition (GI50) with MV-4-11 came to 74.6 nM; with THP-1, 113 nM; with K-562, 628 nM. Moreover, in the assay with MV-4-11, the “MV-4-11 TGI” value stood at 180 nM. In the assay on THP-1, the “THP-1 TGI” value came to 315.5 nM. Also, the “K-562 TGI” value with K-562 was greater than 10000 nM.
`Cc1cc(N2C(=O)c3c(C(=O)NCCN(C)C)cn(C)c3C2c2ccc(Cl)cc2)cc2c1nnn2C` (centres unmarked) [Example 112, 6-(4-chlorophenyl)-5-(1,4-dimethyl-1H-benzo[d][1,2,3]triazol-6-yl)-N-(2-(dimethylamino)ethyl)-1-methyl-4-oxo-1,4,5,6-tetrahydropyrrolo[3,4-b]pyrrole-3-carboxamide]: the figures for the IC50 on BRD4, on BRD3 and at CREBBP were 120 nM, 64 nM and 17300 nM, respectively. In addition, the GI50 came to 19.4 nM in the assay on MV-4-11, 39.3 nM in the assay with THP-1 and 409 nM in the assay with K-562. Moreover, in the assay on MV-4-11, the “MV-4-11 TGI” value was 34.75 nM. For the same compound, the “THP-1 TGI” value in the assay with THP-1 was 95.95 nM. Moreover, the “K-562 TGI” value in the assay with K-562 was greater than 10000 nM.
Regarding `COc1ncccc1-c1cc2c(n1C)C(c1ccc(Cl)cc1)N(c1cc(C)c3nnc(C)n3c1)C2=O` (stereo in doubt) [Example 135, (R)-6-(4-chlorophenyl)-5-(3,8-dimethyl-[1,2,4]triazolo[4,3-a]pyridin-6-yl)-2-(2-methoxypyridin-3-yl)-1-methyl-5,6-dihydropyrrolo[3,4-b]pyrrol-4(1H)-one], the IC50 on BRD4 came out at 14 nM; on BRD3, 21 nM; on CREBBP, 470 nM. The GI50 in the assay with MV-4-11 turned out to be 6.08 nM; in the assay on THP-1 it was 6.4 nM; in the assay on K-562 it was 21.4 nM. Moreover, in the assay on MV-4-11, the “MV-4-11 TGI” value came out at 12.44 nM. Further, the “THP-1 TGI” value in the assay with THP-1 turned out to be 14.95 nM. Moreover, the “K-562 TGI” value in the assay with K-562 was greater than 10000 nM.
As to `Cc1cc(N2C(=O)c3c(C4CC4)c(C)n(C)c3C2c2ccc(Cl)cc2)cn2c(C)nnc12` (centres unmarked) [Example 122, 6-(4-chlorophenyl)-3-cyclopropyl-5-(3,8-dimethyl-[1,2,4]triazolo[4,3-a]pyridin-6-yl)-1,2-dimethyl-5,6-dihydropyrrolo[3,4-b]pyrrol-4(1H)-one], the half-inhibitory concentration (IC50) on BRD4 is 12 nM; at BRD3, 15 nM; at CREBBP it was 4500 nM. The GI50 in the assay with MV-4-11 came to 9.11 nM; with THP-1, 6.04 nM; with K-562, 41 nM. Besides, the “MV-4-11 TGI” value in the assay on MV-4-11 came to 12.97 nM. Also, in the assay on THP-1, the “THP-1 TGI” value turned out to be 11.93 nM. The “K-562 TGI” value in the assay with K-562 was greater than 7000 nM.
As to `Cc1cn(CC(=O)N(C)C)c2c1C(=O)N(c1cc(C)c3nnc(C)n3c1)C2c1ccc(Cl)cc1` (centres unmarked) [Example 129, 2-(6-(4-chlorophenyl)-5-(3,8-dimethyl-[1,2,4]triazolo[4,3-a]pyridin-6-yl)-3-methyl-4-oxo-5,6-dihydropyrrolo[3,4-b]pyrrol-1(4H)-yl)-N,N-dimethylacetamide], the IC50 was 54 nM at BRD4, 58 nM at BRD3 and 8100 nM on CREBBP. Further, the GI50 with MV-4-11 was determined as 96.3 nM; with THP-1, 188 nM; in the assay on K-562, 492 nM. Moreover, the “MV-4-11 TGI” value in the assay on MV-4-11 was 143 nM. Further, the “THP-1 TGI” value with THP-1 was found to be 439.5 nM. The “K-562 TGI” value in the assay on K-562 was greater than 10000 nM.
Turning to `COc1cccc(C2c3c(ccn3C)C(=O)N2c2cc(C)c(=O)n(C)c2)c1` (centres unmarked) [Example 85, 5-(1,5-dimethyl-6-oxo-1,6-dihydropyridin-3-yl)-6-(3-methoxyphenyl)-1-methyl-5,6-dihydropyrrolo[3,4-b]pyrrol-4(1H)-one], the IC50 on BRD4 was 695 nM; at BRD2, 740 nM; on BRD3, 560 nM.
Regarding `CNC(=O)c1cn(C)c2c1C(=O)N(c1cc(C)c3nnn(C)c3c1)C2c1ccc(Cl)cc1` (centres unmarked) [Example 98, 6-(4-chlorophenyl)-5-(1,4-dimethyl-1H-benzo[d][1,2,3]triazol-6-yl)-N,1-dimethyl-4-oxo-1,4,5,6-tetrahydropyrrolo[3,4-b]pyrrole-3-carboxamide], the values for the IC50 at BRD4, at BRD3 and on CREBBP were less than 11 nM, 12 nM and 6700 nM, respectively. The GI50 with MV-4-11 worked out at 4.95 nM; in the assay on THP-1, 5.57 nM; in the assay on K-562 it was 37.3 nM. In addition, in the assay on MV-4-11, the “MV-4-11 TGI” value worked out at 12.53 nM. Further, the “THP-1 TGI” value in the assay on THP-1 came to 15.97 nM. In addition, in the assay on K-562, the “K-562 TGI” value was greater than 8200 nM.
As for `CNC(=O)Nc1cn(C)c2c1C(=O)N(c1cc(C)c3nnc(C(F)F)n3n1)C2c1ccc(Cl)cc1` (centres unmarked) [Example 111, 1-(6-(4-chlorophenyl)-5-(3-(difluoromethyl)-8-methyl-[1,2,4]triazolo[4,3-b]pyridazin-6-yl)-1-methyl-4-oxo-1,4,5,6-tetrahydropyrrolo[3,4-b]pyrrol-3-yl)-3-methylurea], the values for the IC50 at BRD4, on BRD3 and at CREBBP were less than 11 nM, 19 nM and greater than 37000 nM, respectively. The values for the GI50 in the assay with MV-4-11, in the assay on THP-1 and in the assay on K-562 were 13.2 nM, 10.7 nM and 113 nM, respectively. In the assay on MV-4-11, the “MV-4-11 TGI” value is 31.2 nM. For the same compound, the “THP-1 TGI” value in the assay on THP-1 is 30.1 nM. In the assay with K-562, the “K-562 TGI” value was greater than 10000 nM.
